Source: BindingDB's records for doi:10.1016/S0960-894X(01)80156-6 (1994)
pIC50: −log10 of the molar value. Where a SMILES comes first, the peptide text is derived from it. Bridges are numbered along the chain shown (N, C = ends). [ ]: non-standard residue; d: D form. Aoc = NCCCCCCCC(=O)O; Ava = NCCCCC(=O)O

Target: Endothelin A receptor (Oryctolagus cuniculus)
Assay: Binding affinity against Endothelin A receptor in rabbit renal artery vascular smooth muscle membrane (ET-A)

Row | Compound | pIC50
1 | CC[C@H](C)[C@H](NC(=O)[C@H](CC(=O)O)NC(=O)[C@H](CC(C)C)NC(=O)[C@H](Cc1cnc[nH]1)NC(=O)[C@@H]1CSSC[C@H](N)C(=O)N[C@@H](CO)C(=O)NCCCCCCCC(=O)N[C@@H](C(C)C)C(=O)N[C@@H](Cc2ccc(O)cc2)C(=O)N[C@@H](Cc2ccccc2)C(=O)N1)C(=O)N[C@H](C(=O)N[C@@H](Cc1c[nH]c2ccccc12)C(=O)O)[C@@H](C)CC [Trp-Ile-Ile-Asp-Leu-Hisc(Cys-Ser-Aoa-Val-Tyr-Phe-Cys)] (H-CS[Aoc]VYFCHLDIIW-OH; disulfide 1-7) | 5.74
2 | CC[C@H](C)[C@H](NC(=O)[C@H](CC(=O)O)NC(=O)[C@H](CC(C)C)NC(=O)[C@H](Cc1c[nH]cn1)NC(=O)[C@@H]1CSSC[C@H](N)C(=O)N[C@@H](CO)C(=O)NCCCCC(=O)N[C@@H](C(C)C)C(=O)N[C@@H](Cc2ccc(O)cc2)C(=O)N[C@@H](Cc2ccccc2)C(=O)N1)C(=O)N[C@H](C(=O)N[C@@H](Cc1c[nH]c2ccccc12)C(=O)O)[C@@H](C)CC [Trp-Ile-Ile-Asp-Leu-Hisc(Cys-Ser-Apa-Val-Tyr-Phe-Cys)] (H-CS[Ava]VYFCHLDIIW-OH; disulfide 1-7) | 5.60
3 | CC[C@H](C)[C@H](NC(=O)[C@H](CC(=O)O)NC(=O)[C@H](CC(C)C)NC(=O)[C@H](Cc1c[nH]cn1)NC(=O)[C@@H]1CSSC[C@H](N)C(=O)N[C@@H](CO)C(=O)N[C@@H](CO)C(=O)N[C@@H](C(C)C)C(=O)N[C@@H](Cc2ccc(O)cc2)C(=O)N[C@@H](Cc2ccccc2)C(=O)N1)C(=O)N[C@H](C(=O)N[C@@H](Cc1c[nH]c2ccccc12)C(=O)O)[C@@H](C)CC [Trp-Ile-Ile-Asp-Leu-Hisc(Cys-Ser-Ser-Val-Tyr-Phe-Cys)] (H-CSSVYFCHLDIIW-OH; disulfide 1-7) | 5.70
4 | CC[C@H](C)[C@H](NC(=O)[C@H](CC(=O)O)NC(=O)[C@H](CC(C)C)NC(=O)[C@H](Cc1c[nH]cn1)NC(=O)[C@@H]1CSSC[C@H](N)C(=O)N[C@@H](CO)C(=O)N[C@@H](C(C)C)C(=O)N[C@@H](Cc2ccc(O)cc2)C(=O)N[C@@H](Cc2ccccc2)C(=O)N1)C(=O)N[C@H](C(=O)N[C@@H](Cc1c[nH]c2ccccc12)C(=O)O)[C@@H](C)CC [Trp-Ile-Ile-Asp-Leu-Hisc(Cys-Ser-Val-Tyr-Phe-Cys)] (H-CSVYFCHLDIIW-OH; disulfide 1-6) | 5.42
